Assay results published in patent US20240252488A1 (KOREA RESEARCH INSTITUTE OF CHEMICAL TECHNOLOGY, priority 2020, published 2024).
pKd: −log10 of the molar value.

Key:
MLKL [1] = biological target: T1, MLKL (Homo sapiens, UniProt Q8NB16); experiment: MLKL degradation assay in HepG2 cell line (western blot); format: cell-based; set-up: endogenous in cells; host or cells: HepG2 or HaCaT; details: cell line not given; for Degradation assay (Degradation %) 1 μM: compound 1 μM; for Degradation assay (Degradation %) 10 μM: compound 10 μM
T1 sequence (Q8NB16 1-471): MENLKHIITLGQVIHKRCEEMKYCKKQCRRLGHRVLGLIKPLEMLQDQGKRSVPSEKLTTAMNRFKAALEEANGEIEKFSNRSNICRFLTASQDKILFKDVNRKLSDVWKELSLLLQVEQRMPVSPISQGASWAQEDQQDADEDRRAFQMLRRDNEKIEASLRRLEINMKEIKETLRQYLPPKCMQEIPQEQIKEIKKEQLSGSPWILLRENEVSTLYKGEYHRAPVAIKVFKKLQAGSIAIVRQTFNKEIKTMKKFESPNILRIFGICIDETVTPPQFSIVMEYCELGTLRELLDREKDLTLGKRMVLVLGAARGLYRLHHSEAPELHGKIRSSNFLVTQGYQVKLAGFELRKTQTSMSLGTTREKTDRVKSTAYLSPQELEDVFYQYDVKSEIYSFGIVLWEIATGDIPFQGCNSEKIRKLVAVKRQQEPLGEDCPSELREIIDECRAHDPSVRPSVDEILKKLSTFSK
Procedure: MLKL degradation ability was evaluated in the following method.
1 mL of Human liver cancer cell line (HepG2 cell line) or human skin cell line (HaCaT cell line) was equally distributed into each well at 2.0×10^5 cells/mL in a 12-well cell culture plate. On the next day, the medium was replaced with a medium made so that the final concentration of test compound was 1 or 10 μM (1 mL/well), and incubated in 5% CO2, at 37° C. for 20-24 hours (Thermo scientific, Forma steri-cycle).
For protein preparation after incubation, cells were washed with 1×TBST, and 60 μL of RIPA lysis buffer containing Halt™ Protease and Phosphatase Inhibitor Cocktail was dispensed into each well. After scraping the cells with a scraper, the cells were recovered, and the pallet was homogenized and reacted on ice for 30 minutes. After the cells were centrifuged at 13,000 rpm, 10 minutes, 4° C., the supernatant was transferred to a new E-tube. For protein quantification, after dispensing sample and BCA (0-4 mg/ml) in a 96 well plate, 100 μL of BCA was dispensed and reacted in a 37° C. incubator for 30 minutes. After measuring the absorbance (SpectraMax, M5e, 562 nm), the amount of the sample was adjusted with the same concentration of protein and 4× Laemmli sample buffer, DW, and reacted at 100° C. for 5 minutes.
After assembling the MP TGX Precast Gel in the Mini-PROTEAN Tetra Cell, the same protein (10-15 μg) was added in an 8-10 μL volume per well, 1×Tris-Glycine Buffer was added, and loading was performed. After loading was completed, transfer was performed using Pierce G2 Fast Blotter and Pierce 1-Step Transfer Buffer. After completion of the transfer, 10 ml of SuperBlock™ Blocking Buffer was dispensed and reacted at room temperature for 10 minutes. 5% BSA containing the primary antibody was dispensed and reacted over night at 4° C. The next day, washing was performed three times with 1×TBST at room temperature for 10 minutes. 5% BSA containing the secondary antibody was dispensed and reacted at room temperature for 1 hour. Washing was performed three times with 1×TBST at room temperature for 10 minutes. The amount of protein expression was measured using chemiluminescence (LuminoGraph, ATTO).

FADD−/− Jurkat cells = experiment: Necroptosis inhibition assay, TNF-α-induced necroptosis (CellTiter-Glo 2.0); format: cell-based, human; details: TNF-α 15 ng/mL; for Necroptosis inhibition assay (Rescue %) 1 μM: compound 1 μM; for Necroptosis inhibition assay (Rescue %) 10 μM: compound 10 μM
Summary of the method: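 Luminescent ATP measurement gave viability, from which cytotoxicity and necroptosis inhibition rate were derived. Before that, cells (5.0×10^5 cells/mL) saw compound at 0.1, 1 or 10 μM final for 30 minutes at room temperature, then TNF-α (15 ng/mL final) for 20 to 24 hours at 37° C.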

MLKL [2] = biological target: T1, MLKL; experiment: Measurement of binding affinity with MLKL receptor (competitive binding assay, Kd); set-up: made in house; host or cells: HEK 293 cell line (T7 phage in E. coli BL21-derived host is also described)
Summary of the method: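 qPCR of MLKL eluted from liganded beads served as the read-out, from which Kd was derived. The protein was made in HEK 293 cells with a DNA tag, and test compounds competed with the bead-bound ligand at 0.9% final DMSO.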

| Compound | Degradation assay (Degradation %) 1 μM (MLKL [1]) [%] | Degradation assay (Degradation %) 10 μM (MLKL [1]) [%] | Necroptosis inhibition assay (Rescue %) 1 μM (FADD−/− Jurkat cells) [%] | Necroptosis inhibition assay (Rescue %) 10 μM (FADD−/− Jurkat cells) [%] | pKd (MLKL [2]) | Necroptosis inhibition assay (Rescue %) 1 μM (FADD−/− Jurkat cells; FADD−/− Jurkat cells) [%] | Necroptosis inhibition assay (Rescue %) 10 μM (FADD−/− Jurkat cells; FADD−/− Jurkat cells) [%] |
| --- | --- | --- | --- | --- | --- | --- | --- |
| Nc1ncc(-c2cnn(C3CCN(C(=O)CC4CCN(C(=O)C5CCN(c6cccc7c6C(=O)N(C6CCC(=O)NC6=O)C7=O)CC5)CC4)CC3)c2)nc1C(=O)O[C@@H](C(=O)Nc1ccc(F)cc1)c1ccccc1 (stereo partly drawn) [TDH-341, (R)-2-((4-fluorophenyl)amino)-2-oxo-1-phenylethyl 3-amino-6-(1-(1-(2-(1-(1-(2-(2,6-dioxopiperidin-3-yl)-1,3-dioxoisoindolin-4-yl)piperidine-4-carbonyl)piperidin-4-yl)acetyl)piperidin-4-yl)-1H-pyrazol-4-yl)pyrazine-2-carboxylate] | 70.78 | 51.56 | 38.23 | 24.8 | 8.46 | – | – |
| Nc1ncc(-c2cnn(C3CCN(CCOCCNC(=O)CNc4cccc5c4C(=O)N(C4CCC(=O)NC4=O)C5=O)CC3)c2)nc1C(=O)O[C@@H](C(=O)Nc1ccc(F)cc1)c1ccccc1 (stereo partly drawn) [TDH-096, (R)-2-((4-fluorophenyl)amino)-2-oxo-1-phenylethyl 3-amino-6-(1-(1-(2-(2-(2-((2-(2,6-dioxopiperidin-3-yl)-1,3-dioxoisoindolin-4-yl)amino)acetamido)ethoxy)ethyl)piperidin-4-yl)-1H-pyrazol-4-yl)pyrazine-2-carboxylate] | 60.02 | 68.41 | 32.98 | 30.53 | 8.40 | – | – |
| Nc1ncc(-c2cnn(C3CCN(CCOC4CCN(C(=O)C5CCN(c6cccc7c6C(=O)N(C6CCC(=O)NC6=O)C7=O)CC5)CC4)CC3)c2)nc1C(=O)OC(C(=O)Nc1ccc(F)cc1)c1ccccc1 (stereo not shown) [TDH-247, 2-((4-fluorophenyl)amino)-2-oxo-1-phenylethyl 3-amino-6-(1-(1-(2-((1-(1-(2-(2,6-dioxopiperidin-3-yl)-1,3-dioxoisoindolin-4-yl)piperidine-4-carbonyl)piperidin-4-yl)oxy)ethyl)piperidin-4-yl)-1H-pyrazol-4-yl)pyrazine-2-carboxylate] | 64.32 | 45.04 | 40.99 | 33.69 | 8.34 | – | – |
| Nc1ncc(-c2cn(C3CCN(CC4CCN(C(=O)C5CCN(c6cccc7c6C(=O)N(C6CCC(=O)NC6=O)C7=O)CC5)CC4)CC3)nn2)nc1C(=O)OC(C(=O)Nc1ccc(F)cc1)c1ccccc1 (stereo not shown) [TDH-222, 2-((4-fluorophenyl)amino)-2-oxo-1-phenylethyl 3-amino-6-(1-(1-((1-(1-(2-(2,6-dioxopiperidin-3-yl)-1,3-dioxoisoindolin-4-yl)piperidine-4-carbonyl)piperidin-4-yl)methyl)piperidin-4-yl)-1H-1,2,3-triazol-4-yl)pyrazine-2-carboxylate] | 37.4 | 30.04 | 45.31 | 34.2 | 7.80 | – | – |
| Nc1ncc(-c2cnn(C3CCN(CCC4CCN(C5=CC(=O)N(C6CCC(=O)NC6=O)C5=O)CC4)CC3)c2)nc1C(=O)O[C@@H](C(=O)Nc1ccc(F)cc1)c1ccccc1 (stereo partly drawn) [TDH-522, (R)-2-((4-fluorophenyl)amino)-2-oxo-1-phenylethyl 3-amino-6-(1-(1-(2-(1-(1-(2,6-dioxopiperidin-3-yl)-2,5-dioxo-2,5-dihydro-1H-pyrrol-3-yl)piperidin-4-yl)ethyl)piperidin-4-yl)-1H-pyrazol-4-yl)pyrazine-2-carboxylate] | 84.27 | 51.16 | – | – | 8.89 | 21.52 | −21.15 |
| Nc1ncc(-c2cnn(C3CCN(CCC4CCN(C(=O)CNc5ccc6c(c5)C(=O)N(C5CCC(=O)NC5=O)C6=O)CC4)CC3)c2)nc1C(=O)O[C@@H](C(=O)Nc1ccc(F)cc1)c1ccccc1 (stereo partly drawn) [TDH-199, (R)-2-((4-fluorophenyl)amino)-2-oxo-1-phenylethyl 3-amino-6-(1-(1-(2-(1-((2-(2,6-dioxopiperidin-3-yl)-1,3-dioxoisoindolin-5-yl)glycyl)piperidin-4-yl)ethyl)piperidin-4-yl)-1H-pyrazol-4-yl)pyrazine-2-carboxylate] | 61.77 | 38.35 | 36.93 | 18 | 8.77 | – | – |
| Nc1ncc(-c2cnn(C3CCN(C(=O)C4CCN(C(=O)C5CCN(c6ccc7nnn(C8CCC(=O)NC8=O)c(=O)c7c6)CC5)CC4)CC3)c2)nc1C(=O)O[C@@H](C(=O)Nc1ccc(F)cc1)c1ccccc1 (stereo partly drawn) [TDH-410, (R)-2-((4-fluorophenyl)amino)-2-oxo-1-phenylethyl 3-amino-6-(1-(1-(1-(1-(3-(2,6-dioxopiperidin-3-yl)-4-oxo-3,4-dihydrobenzo[d][1,2,3]triazin-6-yl)piperidine-4-carbonyl)piperidine-4-carbonyl)piperidin-4-yl)-1H-pyrazol-4-yl)pyrazine-2-carboxylate] | 85.29 | 65.91 | – | – | 8.96 | 48.51 | 27.36 |
| Nc1ncc(-c2cnn(C3CCN(CC4CCN(CC(=O)N5CC(Nc6cccc7c6C(=O)N(C6CCC(=O)NC6=O)C7=O)C5)CC4)CC3)c2)nc1C(=O)OC(C(=O)Nc1ccc(F)cc1)c1ccccc1 (stereo not shown) [TDH-271, 2-((4-fluorophenyl)amino)-2-oxo-1-phenylethyl 3-amino-6-(1-(1-((1-(2-(3-((2-(2,6-dioxopiperidin-3-yl)-1,3-dioxoisoindolin-4-yl)amino)azetidin-1-yl)-2-oxoethyl)piperidin-4-yl)methyl)piperidin-4-yl)-1H-pyrazol-4-yl)pyrazine-2-carboxylate] | 1.47 | 4.22 | 45.32 | 76.94 | 7.07 | – | – |
| Nc1ncc(-c2cnn(C3CCN(CCCCCCCCCCNC(=O)C4CN(c5cccc6c5C(=O)N(C5CCC(=O)NC5=O)C6=O)C4)CC3)c2)nc1C(=O)O[C@@H](C(=O)Nc1ccc(F)cc1)c1ccccc1 (stereo partly drawn) [TDH-158, (R)-2-((4-fluorophenyl)amino)-2-oxo-1-phenylethyl 3-amino-6-(1-(1-(10-(1-(2-(2,6-dioxopiperidin-3-yl)-1,3-dioxoisoindolin-4-yl)azetidine-3-carboxamido)decyl)piperidin-4-yl)-1H-pyrazol-4-yl)pyrazine-2-carboxylate] | 49.22 | 39.81 | – | – | 7.46 | – | – |
